According to patent US20240400546A1, “COMPOUNDS AND USES THEREOF” (JANSSEN PHARMACEUTICA NV, priority 2016, published 2024):
pIC50: −log10 of the molar value.

How the values were obtained:
Assay type in all cases: cell-based
SCD1 = target: T1, SCD1 (Homo sapiens, UniProt O00767); assay: Growth inhibition of humanized yeast expressing SCD1 as sole desaturase; conditions: for half-maximal inhibitory concentration (IC50), SCD1 humanized strain: FIG. 6
T1 construct: host or cells: S. cerevisiae ole1Δ strain, plasmid pRS316 with TDH3 promoter and CYC1 terminator
T1 sequence (O00767 1-359): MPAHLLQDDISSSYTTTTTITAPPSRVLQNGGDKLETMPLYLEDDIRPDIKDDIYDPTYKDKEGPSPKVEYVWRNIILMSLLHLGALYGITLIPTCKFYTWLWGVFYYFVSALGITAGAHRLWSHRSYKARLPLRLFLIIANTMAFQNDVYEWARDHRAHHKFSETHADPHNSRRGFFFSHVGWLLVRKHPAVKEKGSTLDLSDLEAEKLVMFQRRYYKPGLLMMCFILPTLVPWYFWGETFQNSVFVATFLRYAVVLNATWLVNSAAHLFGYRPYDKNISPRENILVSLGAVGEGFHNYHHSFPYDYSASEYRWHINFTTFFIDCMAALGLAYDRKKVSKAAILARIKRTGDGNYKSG
In short: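 ole1Δ yeast (W303 pdr1Δ pdr3Δ background) carried plasmid-borne human SCD1, human SCD5 or yeast Ole1 as the sole desaturase and were grown in uracil-lacking galactose medium in 384-well plates. Starting 2× density was OD600 0.02, with incubation at 30 °C. Growth was read as OD600 at 24 h for Ole1 and at 40 h for SCD1 and SCD5.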

Ole1 = target: T2, Ole1 (Saccharomyces cerevisiae, UniProt P21147); assay: Growth inhibition of yeast expressing Ole1 as sole desaturase; conditions: for OLE1 % Max Inhibition: yeast expressing Ole1 as sole desaturase; for Sensitivity of yeast expressing OLE1 to known SCD1/SCD5 inhibitors: FIG. 6
T2 construct: expressed in transfected cells; host or cells: S. cerevisiae ole1Δ strain (W303 pdr1Δ pdr3Δ background), plasmid pRS316 with TDH3 promoter and CYC1 terminator
T2 sequence (P21147 1-510): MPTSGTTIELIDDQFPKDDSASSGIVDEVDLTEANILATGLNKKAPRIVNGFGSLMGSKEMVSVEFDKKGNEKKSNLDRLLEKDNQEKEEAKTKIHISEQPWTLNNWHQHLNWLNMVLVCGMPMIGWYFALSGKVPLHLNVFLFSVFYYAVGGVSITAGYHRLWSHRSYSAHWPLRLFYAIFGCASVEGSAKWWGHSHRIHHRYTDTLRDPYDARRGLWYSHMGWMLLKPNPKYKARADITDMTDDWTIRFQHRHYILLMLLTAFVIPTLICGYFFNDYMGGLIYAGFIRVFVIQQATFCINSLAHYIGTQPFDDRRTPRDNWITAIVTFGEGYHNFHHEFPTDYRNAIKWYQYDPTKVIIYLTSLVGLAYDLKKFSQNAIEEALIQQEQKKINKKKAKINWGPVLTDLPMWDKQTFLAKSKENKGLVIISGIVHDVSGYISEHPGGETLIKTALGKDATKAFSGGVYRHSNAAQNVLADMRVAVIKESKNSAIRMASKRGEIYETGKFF
Experimental: (§1) Strain ole1Δ (yeast ole1 deletion mutant) was constructed by deleting OLE1 with NAT-MX6 in BY4741, amplifying the deletion cassette from the genomic DNA of the resulting strain with primers flanking the ORF by 1000 bp upstream and downstream, transforming the resulting deletion cassette into W303 pdr1Δ pdr3Δ, and plating transformants on YPD media containing G418 (200 μg/mL) and nourseothricin (100 μg/mL) with 0.01% TWEEN®-20 and 0.5 mM oleic and palmitoleic acids.
(§2) The coding sequence of yeast OLE1 was also cloned into this plasmid). These clones were then transformed into the ole1Δ strain and plated on CSM-Ura media (CSM lacking uracil) with 2% glucose (w/v) and independent colonies were isolated and amplified.
(§3) All compound profiling experiments were performed using the same basic protocol. Different genetic backgrounds (e.g., gene deletions) or conditions (e.g., addition of oleic and palmitoleic acid) were replaced as indicated below.
(§4) Yeast were cultured using standard techniques in complete synthetic media (CSM) and yeast nitrogen base supplemented with 2% (w/v) carbon source (glucose, raffinose, or galactose) to regulate the expression of the toxic disease protein. An initial starter culture was inoculated in 3 mL CSM-Glucose media and incubated overnight in a 30° C. shaker incubator (225 rpm). Saturated morning cultures were then diluted 1:20 in fresh CSM-Raffinose media and grown for 6 h to an OD600 (optical density) of ˜0.4-0.8 at 30° C. with shaking.
(§5) Compound administration was performed in two separate steps. First, 15 μL of CSM-Galactose (induces expression of toxic protein) was dispensed into clear 384 well assay plates using a MULTIDROP™ Combi reagent dispenser. […] The cultures described above were then diluted to a 2× concentration (0.03 and 0.08 for alpha-synuclein and ApoE, final OD600 of 0.015 and 0.04) in CSM-Galactose. For wild-type and Ole1/SCD1/SCD5 plasmid-containing strains, the 2× cell density was 0.02. […] For 96-well assays (FIGS. 1A and 1B), compound dilutions in DMSO were generated in 96 well plates and 1 μL was manually pipetted into 96 well clear bottom assay plates.
(§6) For experiments using a plasmid-borne copy of Ole1, SCD1, or SCD5 (FIGS. 3B, 6, and 7), media lacking uracil (SX-Ura, where X is glucose, raffinose, or galactose), was used for all steps of the compound profiling protocol to ensure its maintenance throughout the assay.
(§7) After yeast delivery, assay plates were incubated under humidified conditions at 30° C. for 24 to 40 h. ApoE4 rescue experiments were stopped at 24 h, aSyn experiments at 40 h, Ole1 at 24 h, and SCD1/SCD5 at 40 h. The growth of yeast was monitored by reading the OD600 of each well using a microplate reader (Perkin Elmer EnVision™).

SCD5 = target: T3, SCD5 (Homo sapiens, UniProt Q86SK9); assay: Growth inhibition of humanized yeast expressing SCD5 as sole desaturase; conditions: for half-maximal inhibitory concentration (IC50), SCD5 humanized strain: FIG. 6
T3 construct: host or cells: S. cerevisiae ole1Δ strain, plasmid pRS316 with TDH3 promoter and CYC1 terminator
T3 sequence (Q86SK9 1-330): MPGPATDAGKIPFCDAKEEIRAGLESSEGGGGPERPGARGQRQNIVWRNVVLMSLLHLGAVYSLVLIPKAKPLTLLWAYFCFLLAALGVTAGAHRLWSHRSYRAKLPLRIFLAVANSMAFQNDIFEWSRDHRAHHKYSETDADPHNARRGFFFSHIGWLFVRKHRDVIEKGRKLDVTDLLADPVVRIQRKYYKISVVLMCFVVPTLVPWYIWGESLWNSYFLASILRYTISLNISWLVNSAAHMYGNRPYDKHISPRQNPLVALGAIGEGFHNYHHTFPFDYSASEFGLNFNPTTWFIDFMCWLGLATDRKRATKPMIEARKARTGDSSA
Experimental: as §1, §2, §3, §4, §5, §6, §7

[1] = humanized yeast expressing SCD1
[2] = humanized yeast expressing SCD5
[3] = humanized yeast expressing human SCD1
[4] = humanized yeast expressing human SCD5
[5] = growth of humanized yeast strain expressing human SCD1
[6] = growth of humanized yeast strain expressing human SCD5

## COc1ccc(-c2noc(C3CCN(C(=O)[C@H]4CC(=O)N(c5ccc(C)c(C)c5)C4)CC3)n2)cc1OC (single isomer, unassigned) [Compound 67]
SCD1; [1]
  SCD1 % Max Inhibition: 54.45%
Ole1
  OLE1 % Max Inhibition: 85.79%
SCD5; [2]
  SCD5 % Max Inhibition: 4.32%

## COc1cccc(-c2noc(C3CCN(C(=O)[C@@H]4CC(=O)N(c5ccc(C)c(C)c5)C4)CC3)n2)c1 (single isomer, unassigned) [Compound 69]
SCD1; [1]
  SCD1 % Max Inhibition: 60.59%
Ole1
  OLE1 % Max Inhibition: 105.31%
SCD5; [2]
  SCD5 % Max Inhibition: 8.06%

## Cc1nnc(-c2ccc(N3CCC(Oc4cc(F)ccc4Cl)CC3)nn2)o1 [CAY10566, reference compound]
SCD1
  half-maximal inhibitory concentration (IC50), SCD1 humanized strain: low nanomolar
Ole1
  Sensitivity of yeast expressing OLE1 to known SCD1/SCD5 inhibitors: resistant
SCD5
  half-maximal inhibitory concentration (IC50), SCD5 humanized strain: low nanomolar

## COc1ccc(-c2noc(C3CCN(C(=O)[C@H]4CC(=O)N(c5ccccc5)C4)CC3)n2)cc1OC [Compound 65]
SCD1; [1]
  pIC50: < 4.35
  SCD1 % Max Inhibition: 83.43%
Ole1
  OLE1 % Max Inhibition: 4.02%
SCD5; [2]
  pIC50: < 4.35
  SCD5 % Max Inhibition: 73.43%

## COc1ccc(-c2noc(C3CCN(C(=O)[C@@H]4CC(=O)N(c5ccccc5)C4)CC3)n2)cc1OC [Compound 66]
SCD1; [1]
  pIC50: < 4.35
  SCD1 % Max Inhibition: 94.04%
Ole1
  OLE1 % Max Inhibition: 99.71%
SCD5; [2]
  pIC50: < 4.35
  SCD5 % Max Inhibition: 19.53%

## COc1ccc(-c2noc(C3CCN(C(=O)[C@@H]4CC(=O)N(c5ccc(C)c(C)c5)C4)CC3)n2)cc1OC [Compound 68]
SCD1; [1]
  pIC50: < 4.35
  SCD1 % Max Inhibition: 22.28%
Ole1
  OLE1 % Max Inhibition: 9.74%
SCD5; [2]
  pIC50: < 4.35
  SCD5 % Max Inhibition: 3.75%

## CCN1C(=O)CN(C)c2ccc(-c3noc(C4CCN(C(=O)CNC(=O)c5ccccc5)CC4)n3)cc21 [Compound 298]
SCD1; [3]
  pIC50: < 4.35
  SCD1 % Max Inhibition: 92.3%
Ole1
  OLE1 % Max Inhibition: 6.6%
SCD5; [4]
  pIC50: < 4.35
  SCD5 % Max Inhibition: 21.3%

## Cc1nn(C)c2cc(-c3noc(C4CCN(C(=O)OC(C)(C)C)CC4)n3)ccc12 [Compound 300]
SCD1; [3]
  pIC50: < 4.35
  SCD1 % Max Inhibition: 78.1%
Ole1
  OLE1 % Max Inhibition: 79.7%
SCD5; [4]
  pIC50: < 4.35
  SCD5 % Max Inhibition: 36.0%

## Cc1nn(C)c2cc(-c3nsc(C4CCN(C(=O)CNC(=O)c5cccc(C#N)c5)CC4)n3)ccc12 [Compound 322]
SCD1; [3]
  pIC50: < 4.35
  SCD1 % Max Inhibition: 73.6%
Ole1
  OLE1 % Max Inhibition: 9.0%
SCD5; [4]
  pIC50: < 4.35
  SCD5 % Max Inhibition: 29.8%

## O=C(c1ccccc1)N1CCC(c2nc(Cl)no2)CC1 [Compound 351]
SCD5; [4]
  pIC50: ≤ 4.35

## CC(C)n1ncc2ccc(-c3noc(N4CCN(C(=O)OC5CC5)CC4)n3)cc21 [Compound 496]
SCD5; [4]
  pIC50: 6.35

## CC(C)n1ncc2ccc(-c3noc(C4CCNCC4)n3)cc21 [Compound 500]
SCD1; [3]
  pIC50: < 4.35
SCD5; [4]
  pIC50: < 4.35

## CC(C)n1ncc2ccc(N3CC4(CCN(C(=O)OC(C)(C)C)CC4)C3)cc21 [Compound 511]
SCD1; [3]
  pIC50: < 4.35
SCD5; [4]
  pIC50: 5.47

## CC1=NN(C)C2C=C(c3noc([C@H]4CC[C@H](O)CC4)n3)C=CC12 (some centres unmarked) [Compound 526]
SCD1; [3]
  pIC50: < 4.35
SCD5; [4]
  pIC50: < 4.35

## Cc1noc(N2CCC(c3nc(-c4ccc5c(C)nn(C)c5c4)no3)CC2)n1 [Compound 543]
SCD1; [3]
  pIC50: < 4.35
SCD5; [4]
  pIC50: ≤ 4.35

## CC(C)n1ncc2ccc(-c3nc(C4CCN(C(=O)c5cccc(F)c5)CC4)no3)cc21 [Compound 547]
SCD5; [4]
  pIC50: 4.35

## Cc1nn(C)c2cc(-c3noc(C4CCN(C(=O)CNC(=O)c5ccc(Cl)cc5)CC4(F)F)n3)ccc12 (centres unmarked) [Compound 553]
SCD1; [3]
  pIC50: 5.24
SCD5; [4]
  pIC50: 6.05

## CC(C)n1ncc2ccc(-c3noc(C4CCN(C(=O)c5ncco5)CC4)n3)cc21 [Compound 615]
SCD1; [5]
  pIC50: 6.07
SCD5; [6]
  pIC50: 5.73

## Cc1cc(N2CCN(c3nc(-c4ccc5cnn(C(C)C)c5c4)no3)CC2)on1 [Compound 657]
SCD1; [5]
  pIC50: < 4.35
SCD5; [6]
  pIC50: 5.04

## CC(C)n1ncc2ccc(N3CC4(CCN(C(=O)OC(C)(C)C)CC4)C3)cc21 [Compound 663]
SCD1; [5]
  pIC50: < 4.35
SCD5; [6]
  pIC50: 8.00

## CC(C)(C)OC(=O)N1CCN(c2noc(-c3ccc4cnn(C5COC5)c4c3)n2)CC1 [Compound 750]
SCD1; humanized yeast strain, 40 h
  pIC50: 5.49
SCD5; humanized yeast strain, 40 h
  pIC50: 8.00

## COCC(C)(C)n1ncc2ccc(-c3noc(C4CCN(C(=O)OC(C)(C)C)CC4)n3)cc21 [Compound 788]
SCD1; humanized yeast strain, 40 h
  pIC50: < 4.35
SCD5; humanized yeast strain, 40 h
  pIC50: 5.21

## COC(=O)C1CCCN(c2noc(-c3ccc4cnn(C5COC5)c4c3)n2)CC1 (centres unmarked) [Compound 857]
SCD1; humanized yeast strain, 40 h
  pIC50: < 4.35
SCD5; humanized yeast strain, 40 h
  pIC50: 4.57

## CC(=O)N1CC(n2cc3ccc(-c4nc(C5CCN(C(=O)OC(C)(C)C)CC5)no4)cc3n2)C1 [Compound 862]
SCD1; humanized yeast strain, 40 h
  pIC50: 4.47
SCD5; humanized yeast strain, 40 h
  pIC50: 8.00

## CNC(=O)c1cccc(NC(=O)N2CCC(Oc3ccccc3Cl)CC2)c1 [Compound A939572, reference compound]
SCD1
  half-maximal inhibitory concentration (IC50), SCD1 humanized strain: low nanomolar
Ole1
  Sensitivity of yeast expressing OLE1 to known SCD1/SCD5 inhibitors: resistant
SCD5
  half-maximal inhibitory concentration (IC50), SCD5 humanized strain: low nanomolar

## Cc1nnc(-c2ccc(N3CCC(Oc4ccccc4C(F)(F)F)CC3)nn2)s1 [MF-438, reference compound]
SCD1
  half-maximal inhibitory concentration (IC50), SCD1 humanized strain: low nanomolar
Ole1
  Sensitivity of yeast expressing OLE1 to known SCD1/SCD5 inhibitors: resistant
SCD5
  half-maximal inhibitory concentration (IC50), SCD5 humanized strain: low nanomolar

## O=C(O)Cn1nnc(-c2cc(N3CCC(Oc4cc(F)ccc4Br)CC3)no2)n1 [MK-8245, reference compound]
Ole1
  Sensitivity of yeast expressing OLE1 to known SCD1/SCD5 inhibitors: resistant
SCD5
  half-maximal inhibitory concentration (IC50), SCD5 humanized strain: low nanomolar
